Reference: patent publication US20030232102A1, “Total glycosides of paeony, method to prepare the same and uses thereof” (priority 2001, published 2003)

Test system: patients with rheumatoid arthritis
Assay: Phase II clinical study in rheumatoid arthritis: effectiveness (symptoms, physical examination, comprehensive evaluation)
Format: in vivo, human
Design: ESR Reduced to norm., % of cases / CRP Reduced to Norm., % of cases / RF Reduced to norm., % of cases: concentration or dose not given beside the values
Description: It was a multiple-centered, randomized, parallel, positive controlled Phrase II clinical study.
All clinical studies except the above mentioned 120 cases were conducted in a single-blind condition.
1) Age 18˜65, male or female who agreed to the investigational treatment for 12 weeks to 6 months. History of rheumatoid arthritis was within 3 years.
2) Documented Rheumatoid Arthritis based on a diagnostic criteria of 1987 Revised ARA Criteria for the Classification of Rheumatoid Arthritis
3) Diagnosis of a typical active stage of RA: A patient is said to be on an active stage of RA if he or she has satisfied at least 4 of the following 5 items.
2) Patient who quitted the treatment for the ineffectiveness 7 days after the start of administration was included in the efficacy analysis. Patient who quitted the treatment for the side effects was not included in the efficacy analysis but the safety analyses.
1) The placebo run-in period: Seven days before administration, the selected patients stopped using NSAIDs and took a placebo instead.
4) For the double-blinded study, patients in both groups would be given capsules and tablets in same shapes, odors and amount. Placebo of capsule or tablet were included. Neither doctors nor patients can tell the group of treatment from the other.
5) No analgesics, anti-inflammation drugs, immune regulatory agents or muscle relaxants were allowed during the period of study. Acetaminophen could be used when necessary. If a physical therapy was started before enrollment, it was allowed to be continued, yet, it should be taken all the way during the period of clinical study.
1) Pain at rest: patients were asked to scale the degree of pain with a ruler [drawing 1]
2) Morning stiffness: Patients were requested to make notes on duration of their morning joint stiffness, a time span from its appearance to recovery in minutes every morning. The doctors should evaluate their record sheets by questioning them. For example “Do you fell stiff in any of your joints? (today, these 2 days)” When get a “yes” in answer, then “when did you get up today?” and “when does the stiffness be gone?”
3) Swelling of joints: Take count of the index of joint swelling by summing up the degree number of each joint.
0=normal; 1=swelling soft tissues (synovium) without hydrarthrus; 2=swelling soft tissues (synovium) with hydrarthrus.
4) Tenderness of joints: Take count of the index of joint tenderness by summing up the degree number of each joint:
5) Grip strength: Fold the arm belt of a sphygmomanometer twice and seal it in a small cloth bag suitable for a hand to hold. Aerates the belt in pressure of 20 mm Hg. Patients were asked to grip the bag with their not braced left and right hand, the grip strength is the average pressures in mm Hg for three times.
6) Time consumed for a 15 meters' walk (Seconds): Time started from a calm standing to the final of 15 meters. The average of three times.
7) General joint function (criteria of ARA):
8) Self-scoring and physician's grading on disease conditions: Both patients and doctors were required to submit their score sheet every time on follow-up survey. The scoring was made upon following criteria:
9) Patient's general condition: condition on the physical strength, sleep and appetite.
No effect: less than 30% improvement in symptoms and physical signs.
Improved: About 50% improvement in symptoms and physical signs (including general conditions in physical strength, sleep and appetite).

## CN(Cc1cnc2nc(N)nc(N)c2n1)c1ccc(C(=O)N[C@@H](CCC(=O)O)C(=O)O)cc1 [MTX, Methotrexate]
Double blinded, 12 weeks
  MR Disappeared, cases: 15
  NSJ 50% reduced, % of cases: 56.7%
  NSJ 50% reduced, cases: 34
  NSJ Disappeared, % of cases: 26.7%
  NSJ Disappeared, cases: 16
  RF 2 dilutions lower, % of cases: 36.7%
  RF 2 dilutions lower, cases: 22
  RF Reduced to norm., cases: 0
Overall group, 4 weeks
  AGS 50% increased, % of cases: 7.5%
  AGS 50% increased, cases: 19
  CRP 50% reduced, % of cases: 13.4%
  CRP 50% reduced, cases: 19
  CRP Reduced to Norm., % of cases: 4.9%
  CRP Reduced to Norm., cases: 7
  ESR 50% reduced, % of cases: 41.6%
  ESR 50% reduced, cases: 59
  ESR Reduced to norm., % of cases: 15.5%
  ESR Reduced to norm., cases: 22
  ITJ 50% reduced, % of cases: 19.0%
  ITJ 50% reduced, cases: 27
  ITJ Disappeared, % of cases: 2.8%
  ITJ Disappeared, cases: 4
  MR 50% reduced, % of cases: 45.8%
  MR 50% reduced, cases: 65
  MR Disappeared, % of cases: 9.8%
  MR Disappeared, cases: 14
  NSJ 50% reduced, % of cases: 48.6%
  NSJ 50% reduced, cases: 69
  NSJ Disappeared, % of cases: 10.6%
  NSJ Disappeared, cases: 15
  RF 2 dilutions lower, % of cases: 49.3%
  RF 2 dilutions lower, cases: 70
  RF Reduced to norm., % of cases: 4.9%
  RF Reduced to norm., cases: 7
Overall group, 8 weeks
  AGS 50% increased, % of cases: 16.7%
  AGS 50% increased, cases: 23
  CRP 50% reduced, % of cases: 17.6%
  CRP 50% reduced, cases: 25
  CRP Reduced to Norm., % of cases: 12.7%
  CRP Reduced to Norm., cases: 18
  ESR 50% reduced, cases: 80
  ESR Reduced to norm., % of cases: 18.3%
  ESR Reduced to norm., cases: 26
  ITJ 50% reduced, % of cases: 34.5%
  ITJ 50% reduced, cases: 49
  ITJ Disappeared, % of cases: 3.5%
  ITJ Disappeared, cases: 5
  MR 50% reduced, % of cases: 52.1%
  MR 50% reduced, cases: 74
  MR Disappeared, % of cases: 19.7%
  MR Disappeared, cases: 28
  NSJ 50% reduced, % of cases: 51.4%
  NSJ 50% reduced, cases: 73
  NSJ Disappeared, % of cases: 16.9%
  NSJ Disappeared, cases: 24
  RF 2 dilutions lower, % of cases: 59.9%
  RF 2 dilutions lower, cases: 85
  RF Reduced to norm., % of cases: 9.2%
  RF Reduced to norm., cases: 13
Overall group, 12 weeks
  AGS 50% increased, % of cases: 29.5%
  AGS 50% increased, cases: 42
  CRP 50% reduced, % of cases: 23.2%
  CRP 50% reduced, cases: 33
  CRP Reduced to Norm., % of cases: 17.6%
  CRP Reduced to Norm., cases: 25
  ESR 50% reduced, cases: 76
  ESR Reduced to norm., % of cases: 21.8%
  ESR Reduced to norm., cases: 31
  ITJ 50% reduced, % of cases: 50.7%
  ITJ 50% reduced, cases: 72
  ITJ Disappeared, % of cases: 6.3%
  ITJ Disappeared, cases: 9
  MR 50% reduced, % of cases: 67.6%
  MR 50% reduced, cases: 96
  MR Disappeared, % of cases: 11.3%
  MR Disappeared, cases: 34
  NSJ 50% reduced, % of cases: 61.3%
  NSJ 50% reduced, cases: 87
  NSJ Disappeared, % of cases: 19.0%
  NSJ Disappeared, cases: 27
  RF 2 dilutions lower, % of cases: 59.9%
  RF 2 dilutions lower, cases: 85
  RF Reduced to norm., % of cases: 11.3%
  RF Reduced to norm., cases: 16
Overall group, 24 weeks
  AGS 50% increased, % of cases: 16.7%
  AGS 50% increased, cases: 10
  CRP 50% reduced, % of cases: 18.3%
  CRP 50% reduced, cases: 11
  CRP Reduced to Norm., % of cases: 40.0%
  CRP Reduced to Norm., cases: 24
  ESR 50% reduced, % of cases: 23.3%
  ESR 50% reduced, cases: 14
  ESR Reduced to norm., % of cases: 43.3%
  ESR Reduced to norm., cases: 26
  ITJ 50% reduced, % of cases: 58.3%
  ITJ 50% reduced, cases: 35
  ITJ Disappeared, % of cases: 10.0%
  ITJ Disappeared, cases: 6
  MR 50% reduced, % of cases: 50.0%
  MR 50% reduced, cases: 30
  MR Disappeared, % of cases: 31.7%
  MR Disappeared, cases: 19
  NSJ 50% reduced, % of cases: 46.7%
  NSJ 50% reduced, cases: 28
  NSJ Disappeared, % of cases: 26.7%
  NSJ Disappeared, cases: 16
  RF 2 dilutions lower, % of cases: 38.3%
  RF 2 dilutions lower, cases: 23
  RF Reduced to norm., % of cases: 10.0%
  RF Reduced to norm., cases: 6
Overall groups, 4 weeks, mean
  Changes in RA perimeters: GS-L: 12.56
  Changes in RA perimeters: GS-R: 11.60
  Changes in RA perimeters: ISJ: 3.73
  Changes in RA perimeters: ITJ: 6.04
  Changes in RA perimeters: MR: 35.76
  Changes in RA perimeters: NSJ: 2.10
  Changes in RA perimeters: NTJ: 2.61
  Changes in RA perimeters: PR: 1.05
Overall groups, 8 weeks, mean
  Changes in RA perimeters: GS-L: 16.66
  Changes in RA perimeters: GS-R: 19.36
  Changes in RA perimeters: ITJ: 12.66
  Changes in RA perimeters: MR: 54.20
  Changes in RA perimeters: NSJ: 4.43
  Changes in RA perimeters: NTJ: 5.38
  Changes in RA perimeters: PR: 1.94
  Changes in RA perimeters: TSJ: 6.59
Overall groups, 12 weeks, mean
  Changes in RA perimeters: GS-L: 23.06
  Changes in RA perimeters: GS-R: 28.10
  Changes in RA perimeters: ISJ: 10.25
  Changes in RA perimeters: ITJ: 18.77
  Changes in RA perimeters: MR: 78.52
  Changes in RA perimeters: NSJ: 6.77
  Changes in RA perimeters: NTJ: 8.78
Overall groups, 24 weeks, mean
  Changes in RA perimeters: GS-L: 31.83
  Changes in RA perimeters: GS-R: 30.90
  Changes in RA perimeters: ISJ: 6.88
  Changes in RA perimeters: ITJ: 13.94
  Changes in RA perimeters: MR: 60.70
  Changes in RA perimeters: NSJ: 5.39
  Changes in RA perimeters: NTJ: 9.05
  Changes in RA perimeters: PR: 2.62
